From patent US11787762B2, “Tetralin and tetrahydroquinoline compounds as inhibitors of HIF-2alpha” (ARCUS BIOSCIENCES, INC., priority 2020, dated 2023) come the findings set out here.

One may read the pIC50 as −log10 of the IC50, conventionally taken in molar units. A high value points to a low IC50.

pIC50: −log10 of the molar value.

The target of test [1] is T1, Histidine tagged HIF-2α protein containing PAS-B domain (240-350) (Homo sapiens, UniProt Q99814).
T1 construct: HIF-2α protein containing PAS-B domain (240-350); made in house
The test can be described thus: HIF-2α Scintillation Proximity Assay (SPA) binding assay. To be noted: Table 3; 50 nM HIF-2α protein, 25 nM 3H-tracer. The gist of the method: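 His-tagged HIF-2α PAS-B (240-350), 50 nM final, preincubated with compound 1 h at room temperature in 25 mM Tris-HCl pH 7.4, 150 mM NaCl, 0.15% BSA, 0.001% Tween 20, 2% DMSO. Copper-chelate SPA beads (3 ug/well, 45 min) and 25 nM tritiated N-(3-chlorophenyl)-4-nitro-2,1,3-benzoxadiazol-5-amine tracer followed; IC50 from four-parameter fits.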
A general note: SPA uses beads or plates that emit light when radiolabelled molecules are held near them.

For the next test, the target named is T2, HIF-2α (Homo sapiens, UniProt Q99814).
T2 construct: host or cells: 786-O cells stably transduced with Cignal Lenti HIF Luc Reporter (only the reporter was introduced, not HIF-2α)
As to the kind of experiment: HIF-2α luciferase reporter assay in HIF-Luc-786-O cells. The format is cell-based. The settings on record: Table 3, 20 hours incubation. In short, it runs like this:
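786-O cells stably carrying a HIF-responsive luciferase reporter, 20,000/well in OptiMem with 1% DMSO, exposed to compound up to 50 uM for 20 h at 37 °C. ONE-Glo luminescence normalised to DMSO and no-cell controls; IC50 by four-parameter fit.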
For orientation: Reporter assays use an easily measured gene product as a stand-in for the process of interest.

T1 sequence (Q99814 240-350): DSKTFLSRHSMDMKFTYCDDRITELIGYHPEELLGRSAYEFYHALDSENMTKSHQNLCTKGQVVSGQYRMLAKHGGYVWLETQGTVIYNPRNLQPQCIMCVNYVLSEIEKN
T2 sequence (Q99814 whole entry): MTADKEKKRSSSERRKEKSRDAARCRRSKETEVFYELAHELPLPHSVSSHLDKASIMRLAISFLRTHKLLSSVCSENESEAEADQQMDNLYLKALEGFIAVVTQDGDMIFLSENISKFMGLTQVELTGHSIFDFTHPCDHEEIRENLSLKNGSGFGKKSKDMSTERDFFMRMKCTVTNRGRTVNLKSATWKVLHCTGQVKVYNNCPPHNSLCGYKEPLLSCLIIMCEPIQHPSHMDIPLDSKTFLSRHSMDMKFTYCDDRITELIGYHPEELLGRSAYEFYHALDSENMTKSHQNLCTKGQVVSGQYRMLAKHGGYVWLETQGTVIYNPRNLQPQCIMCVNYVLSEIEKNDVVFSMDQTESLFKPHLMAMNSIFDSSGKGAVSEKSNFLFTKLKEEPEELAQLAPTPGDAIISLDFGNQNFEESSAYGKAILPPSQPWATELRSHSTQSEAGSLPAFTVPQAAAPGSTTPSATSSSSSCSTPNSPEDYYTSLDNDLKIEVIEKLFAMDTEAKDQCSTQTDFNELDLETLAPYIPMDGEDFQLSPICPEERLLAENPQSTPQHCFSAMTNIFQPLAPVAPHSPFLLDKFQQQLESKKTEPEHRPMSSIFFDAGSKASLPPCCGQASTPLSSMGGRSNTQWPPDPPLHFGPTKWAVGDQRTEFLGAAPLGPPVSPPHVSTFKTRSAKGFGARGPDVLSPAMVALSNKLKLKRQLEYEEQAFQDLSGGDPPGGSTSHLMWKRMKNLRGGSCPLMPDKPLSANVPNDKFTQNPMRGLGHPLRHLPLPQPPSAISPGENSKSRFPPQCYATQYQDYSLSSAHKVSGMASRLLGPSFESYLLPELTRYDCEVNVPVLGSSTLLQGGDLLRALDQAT

For `Cc1cnccc1-c1ccc([C@H]2CC[C@H](F)c3cc(F)cc(C#N)c32)c2c1[C@H](O)C(F)(F)C2` [Example 242, (5S,8R)-8-[(1S)-2,2-difluoro-1-hydroxy-7-(3-methylpyridin-4-yl)-2,3-dihydro-1H-inden-4-yl]-3,5-difluoro-5,6,7,8-tetrahydronaphthalene-1-carbonitrile], the negative-log IC50 (pIC50) (in test [1]; against HIF-2α) was over 7.00 throughout.
